Experimental data published in US12145947B2, “Pyrimidine based modulators and uses thereof” (Quanta Therapeutics, Inc., priority 2022, dated 2024).

What was measured:
[1] = target: T1, GST-tagged KRAS-G12D (2-169) (Homo sapiens, UniProt P01116, G12D); assay: Nucleotide exchange assay (NEA), SOS-mediated, HTRF, KRAS G12D; assay type: biochemical; settings: Table 4; IC50 extracted at 30 min
T1 construct: GST-tagged KRAS-G12D (2-169, Reaction Biology, MSC-11-539); purchased Reaction Biology MSC-11-539 (KRAS G12D); MSC-11-502 (SOS1cat)
T1 sequence (P01116 2-169 isoform P01116-2 G12D): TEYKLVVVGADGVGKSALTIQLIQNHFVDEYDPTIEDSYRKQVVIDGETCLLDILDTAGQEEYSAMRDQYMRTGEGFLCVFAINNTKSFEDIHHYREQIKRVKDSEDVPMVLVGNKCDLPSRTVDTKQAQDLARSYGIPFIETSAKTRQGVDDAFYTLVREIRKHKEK
Method in brief: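 IC50 values come from 4-parameter fits at the 30 min time point of an SOS-driven exchange read by HTRF, normalised to DMSO (0%) and SOS-free blank (100%). Final reaction: 5 nM GST-KRAS-G12D (2-169), 20 nM SOScat, 150 nM fluorescent GTP-DY-647P1, after 1 h RT compound preincubation with KRAS and Tb-cryptate anti-GST.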

[2] = system: GP2D cells (KRAS G12D), phospho-ERK; assay: pERK In Cell Western (ICW) assay, GP2D cells; assay type: cell-based; settings: Table 4, 3 hours
Method: pERK ICW is a high throughput screening assay to evaluate the cellular potency of mutant KRAS small molecule inhibitors. KRAS mutant cell lines AGS and GP2D (KRAS^G12D) were purchased from ATCC and maintained respectively in RPMI and DMEM medium supplemented with 10% fetal bovine serum and Penicillin/Streptomycin.
Cells grown in exponential phase were trypsinized, resuspended in fresh media, and viable cells were counted using a cell counter with Trypan Blue (BioRad TC20). Cells were seeded into 384-well plate (Greiner 781091) at density of 5,000 cells/well for AGS and 10,000 cells/well for GP2D and allowed to grow overnight in a 37° C. CO2 incubator. The next day, compounds were dispensed into wells with a ½ log, 10-point serial dilution and top concentration of […] using Tecan D300e dispenser and incubated for 3 hours in a 37° C. CO2 incubator. Cells were then fixed with paraformaldehyde (Electron Microscopy Sciences, 15710, 4% final concentration) for 30 min, permeabilized with wash buffer (1×PBS+0.1% Triton X-100) for 30 min and blocked with Odyssey blocking buffer (Li—COR 927-70001) for 1 hour, all at room temperature (RT). Phospho-ERK antibody (CST 4370L) was diluted 1:500 in Odyssey blocking+0.2% Tween 20 and incubated with cells overnight at 4° C. The next day, plates were washed 5× with wash buffer, incubated with IRDye 800 CW, Goat anti-Rabbit secondary antibody (Li—COR 926-32211, 1:500) and DRAQ5 (CST 4084L, 1:5,000) diluted in Odyssey blocking+0.2% Tween 20 for 1 hour, washed 5×, and imaged on an Odyssey CLx imaging system.
For data analysis, signal intensities from 800 (phosphor-ERK) and 700 (DRAQ5) channels were extracted, and phospho-ERK signals were normalized to DRAQ5 signals for each well and percent of DMSO control values were computed. Data were then imported into Graphpad Prism to compute half-maximal inhibitory concentrations (IC50) using a 4-parameter variable slope model. Z-factor for each plate was computed from signals derived from wells treated with either DMSO or […] of Trametinib. AGS pERK ICW (Method B) IC50 (uM) values of selected compounds are depicted in Table 2 with compounds having a value 0.001 uM to 0.01 uM as ++++; >0.01 uM to 0.1 uM as +++; >0.1 uM to 1 uM as ++; 1 uM to 10 uM as + and >10 uM as NA.

With `CN(C)CC1(COc2nc(N3CCCn4nc(C(=O)N(C)C)c(Cl)c4C3)c(C#N)c(N3CC4(CCCc5sc(N)c(C#N)c54)C3)n2)CC1(F)F` (centres unmarked) [Compound 96, 5-[6-(2-amino-3-cyano-spiro[6,7-dihydro-5H-benzothiophene-4,3′-azetidine]-1′-yl)-5-cyano-2-[[1-[(dimethylamino)methyl]-2,2-difluoro-cyclopropyl]methoxy]pyrimidin-4-yl]-3-chloro-N,N-dimethyl-4,6,7,8-tetrahydropyrazolo[1,5-a][1,4]diazepine-2-carboxamide] the IC50 [1] was < 10 nM and the IC50 [2] was 10 to 100 nM.

`N#Cc1cc2n(n1)CCCN(c1nc(OC[C@@]34CCCN3C[C@H](F)C4)nc(N3CC4(CCc5sc(N)c(C#N)c54)C3)c1C#N)C2` [Compound 24, 2-amino-1′-[5-cyano-6-(2-cyano-4,6,7,8-tetrahydropyrazolo[1,5-a][1,4]diazepin-5-yl)-2-[[(2R,8S)-2-fluoro-1,2,3,5,6,7-hexahydropyrrolizin-8-yl]methoxy]pyrimidin-4-yl]spiro[5,6-dihydrocyclopenta[b]thiophene-4,3′-azetidine]-3-carbonitrile] was tested, and the IC50 [1] was 10 to 100 nM and the IC50 [2] was 100 to 1000 nM.

With `N#Cc1c(N)sc2c1C1(CC2)CN(c2nc(OC[C@@]34CCCN3C[C@H](F)C4)nc(N3CCC[C@]4(C3)NC(=O)NC4=O)c2F)C1` [Compound 7, 2-amino-1′-[6-[(5R)-2,4-dioxo-1,3,9-triazaspiro[4.5]decan-9-yl]-5-fluoro-2-[[(2R,8S)-2-fluoro-1,2,3,5,6,7-hexahydropyrrolizin-8-yl]methoxy]pyrimidin-4-yl]spiro[5,6-dihydrocyclopenta[b]thiophene-4,3′-azetidine]-3-carbonitrile] the IC50 [1] was < 10 nM and the IC50 [2] was 100 to 1000 nM.

Compound `C[C@@]1(O)CCCN(c2nc(OC[C@@]34CCCN3C[C@H](F)C4)nc(N3CC4(CCc5sc(N)c(C#N)c54)C3)c2C#N)C1` [Compound 27, 2-amino-1′-[5-cyano-2-[[(2R,8S)-2-fluoro-1,2,3,5,6,7-hexahydropyrrolizin-8-yl]methoxy]-6-[(3R)-3-hydroxy-3-methyl-1-piperidyl]pyrimidin-4-yl]spiro[5,6-dihydrocyclopenta[b]thiophene-4,3′-azetidine]-3-carbonitrile] has an IC50 [1] of 10 to 100 nM and an IC50 [2] of 100 to 1000 nM.

With `CN(C)CC(F)(F)COc1nc(N2C[C@H]3CC[C@@H](C2)N3)c(C#N)c(N2CC3(CCc4sc(N)c(C#N)c43)C2)n1` [Compound 26, 2-amino-1′-[5-cyano-6-(3,8-diazabicyclo[3.2.1]octan-3-yl)-2-[3-(dimethylamino)-2,2-difluoro-propoxy]pyrimidin-4-yl]spiro[5,6-dihydrocyclopenta[b]thiophene-4,3′-azetidine]-3-carbonitrile] the IC50 [1] was < 10 nM and the IC50 [2] was 100 to 1000 nM.

`N#Cc1c(N2C[C@H]3CC[C@@H](C2)N3)nc(OCC2(CN3CCOCC3)CC2)nc1N1CC2(CCc3sc(N)c(C#N)c32)C1` [Compound 4, 2-amino-1′-[5-cyano-2-[[1-(morpholinomethyl)cyclopropyl]methoxy]-6-[(1R,5S)-3,8-diazabicyclo[3.2.1]octan-3-yl]pyrimidin-4-yl]spiro[5,6-dihydrocyclopenta[b]thiophene-4,3′-azetidine]-3-carbonitrile] was tested, and the IC50 [1] was < 10 nM and the IC50 [2] was 1 to 10 nM.

In the case of `N#Cc1c(N2C[C@H]3COC[C@@H](C2)N3)nc(OCC2(CN3CCOCC3)CC2)nc1N1CC2(CCc3sc(N)c(C#N)c32)C1` [Compound 42, 2-amino-1′-[5-cyano-2-[[1-(morpholinomethyl)cyclopropyl]methoxy]-6-(3-oxa-7,9-diazabicyclo[3.3.1]nonan-7-yl)pyrimidin-4-yl]spiro[5,6-dihydrocyclopenta[b]thiophene-4,3′-azetidine]-3-carbonitrile], the IC50 [1] is reported as < 10 nM and the IC50 [2] is reported as 100 to 1000 nM.

For `N#Cc1c(N2CCCC(O)CC2)nc(OC[C@@]23CCCN2C[C@H](F)C3)nc1N1CC2(CCc3sc(N)c(C#N)c32)C1` (stereo partly drawn) [Compound 40, 2-amino-1′-[5-cyano-6-(4-hydroxyazepan-1-yl)-2-[[(2R,8S)-2-fluoro-1,2,3,5,6,7-hexahydropyrrolizin-8-yl]methoxy]pyrimidin-4-yl]spiro[5,6-dihydrocyclopenta[b]thiophene-4,3′-azetidine]-3-carbonitrile], the IC50 [1] was 10 to 100 nM and the IC50 [2] was 100 to 1000 nM.

`N#Cc1c(N2CCCCCC2)nc(OC[C@@]23CCCN2C[C@H](F)C3)nc1N1CC2(CCc3sc(N)c(C#N)c32)C1` [Compound 19, 2-amino-1′-[6-(azepan-1-yl)-5-cyano-2-[[(2R)-2-fluoro-1,2,3,5,6,7-hexahydropyrrolizin-8-yl]methoxy]pyrimidin-4-yl]spiro[5,6-dihydrocyclopenta[b]thiophene-4,3′-azetidine]-3-carbonitrile] gave an IC50 [1] of 10 to 100 nM and an IC50 [2] of 100 to 1000 nM.

For `CS(=O)(=O)c1cc2n(n1)CCCN(c1nc(OC[C@@]34CCCN3C[C@H](F)C4)nc(N3CC4(CCc5sc(N)c(C#N)c54)C3)c1C#N)C2` [Compound 21, 2-amino-1′-[5-cyano-2-[[(2R,8S)-2-fluoro-1,2,3,5,6,7-hexahydropyrrolizin-8-yl]methoxy]-6-(2-methylsulfonyl-4,6,7,8-tetrahydropyrazolo[1,5-a][1,4]diazepin-5-yl)pyrimidin-4-yl]spiro[5,6-dihydrocyclopenta[b]thiophene-4,3′-azetidine]-3-carbonitrile], the IC50 [1] was < 10 nM and the IC50 [2] was 10 to 100 nM.

For `CN(C)C(=O)c1nn2c(c1Cl)CN(c1nc(OCC34CCCN3CCC4)nc(N3CC4(CCc5sc(N)c(C#N)c54)C3)c1C#N)CCC2` [Compound 18, 5-[6-(2-amino-3-cyano-spiro[5,6-dihydrocyclopenta[b]thiophene-4,3′-azetidine]-1′-yl)-5-cyano-2-(1,2,3,5,6,7-hexahydropyrrolizin-8-ylmethoxy)pyrimidin-4-yl]-3-chloro-N,N-dimethyl-4,6,7,8-tetrahydropyrazolo[1,5-a][1,4]diazepine-2-carboxamide], the IC50 [1] was < 10 nM and the IC50 [2] was 10 to 100 nM.

Work on `C[C@H](Oc1nc(N2C[C@H]3CC[C@@H](C2)N3)c(C#N)c(N2CC3(CCc4sc(N)c(C#N)c43)C2)n1)[C@@H]1CCCN1C` [Compound 88, 2-amino-1′-[5-cyano-6-[(1R,5S)-3,8-diazabicyclo[3.2.1]octan-3-yl]-2-[(1S)-1-[(2S)-1-methylpyrrolidin-2-yl]ethoxy]pyrimidin-4-yl]spiro[5,6-dihydrocyclopenta[b]thiophene-4,3′-azetidine]-3-carbonitrile] yielded an IC50 [1] of 10 to 100 nM and an IC50 [2] of 1000 to 10000 nM.

For `N#Cc1c(N2C[C@H]3CC[C@@H](C2)N3)nc(OCC2(CN3CCC(F)(F)CC3)CC2)nc1N1CC2(CCc3sc(N)c(C#N)c32)C1` [Compound 34, 2-amino-1′-[5-cyano-6-(3,8-diazabicyclo[3.2.1]octan-3-yl)-2-[[1-[(4,4-difluoro-1-piperidyl)methyl]cyclopropyl]methoxy]pyrimidin-4-yl]spiro[5,6-dihydrocyclopenta[b]thiophene-4,3′-azetidine]-3-carbonitrile], the IC50 [1] was < 10 nM and the IC50 [2] was 1 to 10 nM.
